Laboratory results published in PubChem BioAssay AID1963843 (Molecular Pharmacology Branch, DTP, NCI, 2024).
pIC50: −log10 of the molar value.

Tested on: 616215-338-R-J1-PDC complex spheroid viability
Assay: Anticancer human tumor 616215-338-R-J1-PDC patient-derived colon adenocarcinoma cell line growth inhibition [POLQ]
Conditions: for pIC50: curve of first compound; for viability, T/C: stronger effect = lower value
Procedure, shortened: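 Three-cell-type spheroids modelling solid tumor plus stroma served as the readout system; POL inhibitors were tested individually and in combination, concentration ranges set by clinical Cmax where known.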

[1] = second compound 0.0316 µM, first compound 0.0316 µM
[2] = second compound 0.0316 µM, first compound 0.1 µM
[3] = second compound 0.0316 µM, first compound 0.316 µM
[4] = second compound 0.0316 µM, first compound 1 µM
[5] = second compound 0.1 µM, first compound 0.0316 µM
[6] = second compound 0.1 µM, first compound 0.1 µM
[7] = second compound 0.1 µM, first compound 0.316 µM
[8] = second compound 0.1 µM, first compound 1 µM
[9] = second compound 0.316 µM, first compound 0.0316 µM
[10] = second compound 0.316 µM, first compound 0.1 µM
[11] = second compound 0.316 µM, first compound 0.316 µM
[12] = second compound 0.316 µM, first compound 1 µM
[13] = second compound 1 µM, first compound 0.0316 µM
[14] = second compound 1 µM, first compound 0.1 µM
[15] = second compound 1 µM, first compound 0.316 µM
[16] = second compound 1 µM, first compound 1 µM
[17] = second compound 3.16 µM, first compound 0.0316 µM
[18] = second compound 3.16 µM, first compound 0.1 µM
[19] = second compound 3.16 µM, first compound 0.316 µM
[20] = second compound 3.16 µM, first compound 1 µM
[21] = second compound 10 µM, first compound 0.0316 µM
[22] = second compound 10 µM, first compound 0.1 µM
[23] = second compound 10 µM, first compound 0.316 µM
[24] = second compound 10 µM, first compound 1 µM
[25] = second compound 0.0316 µM, first compound 0.00316 µM
[26] = second compound 0.0316 µM, first compound 0.01 µM
[27] = second compound 0.1 µM, first compound 0.00316 µM
[28] = second compound 0.1 µM, first compound 0.01 µM
[29] = second compound 0.316 µM, first compound 0.00316 µM
[30] = second compound 0.316 µM, first compound 0.01 µM
[31] = second compound 1 µM, first compound 0.00316 µM
[32] = second compound 1 µM, first compound 0.01 µM
[33] = second compound 3.16 µM, first compound 0.00316 µM
[34] = second compound 3.16 µM, first compound 0.01 µM
[35] = second compound 10 µM, first compound 0.00316 µM
[36] = second compound 10 µM, first compound 0.01 µM
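Further: spheroids exposed to compounds for one week before readout.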
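Wherever viability, T/C is given: percent viability relative to DMSO vehicle wells taken as 100%.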

O=C(c1cc(Cc2n[nH]c(=O)c3ccccc23)ccc1F)N1CCN(C(=O)C2CC2)CC1 + Cc1cccc(N(C)C(=O)C2C(O)CCN2c2nc(C)cc(C(F)(F)F)c2C#N)c1
pIC50 (second compound 0.0316 µM): < 5.00 | pIC50 (second compound 0.1 µM): < 5.00 | pIC50 (second compound 0.316 µM): < 5.00 | pIC50 (second compound 1 µM): < 5.00 | pIC50 (second compound 3.16 µM): < 5.00 | pIC50 (second compound 10 µM): < 5.00 | viability, T/C [1]: 105% | viability, T/C [2]: 93.8% | viability, T/C [3]: 102% | viability, T/C [4]: 98.4% | viability, T/C (second compound 0.0316 µM, first compound 3.16 µM): 103% | viability, T/C (second compound 0.0316 µM, first compound 10 µM): 87.8% | viability, T/C [5]: 103% | viability, T/C [6]: 98.4% | viability, T/C [7]: 107% | viability, T/C [8]: 107% | viability, T/C (second compound 0.1 µM, first compound 3.16 µM): 99.9% | viability, T/C (second compound 0.1 µM, first compound 10 µM): 94.3% | viability, T/C [9]: 95.3% | viability, T/C [10]: 102% | viability, T/C [11]: 108% | viability, T/C [12]: 98.9% | viability, T/C (second compound 0.316 µM, first compound 3.16 µM): 108% | viability, T/C (second compound 0.316 µM, first compound 10 µM): 89.2% | viability, T/C [13]: 111% | viability, T/C [14]: 106% | viability, T/C [15]: 105% | viability, T/C [16]: 101% | viability, T/C (second compound 1 µM, first compound 3.16 µM): 102% | viability, T/C (second compound 1 µM, first compound 10 µM): 78% | viability, T/C [17]: 103% | viability, T/C [18]: 102% | viability, T/C [19]: 95.6% | viability, T/C [20]: 103% | viability, T/C (second compound 3.16 µM, first compound 3.16 µM): 97.3% | viability, T/C (second compound 3.16 µM, first compound 10 µM): 88.4% | viability, T/C [21]: 113% | viability, T/C [22]: 101% | viability, T/C [23]: 100% | viability, T/C [24]: 104% | viability, T/C (second compound 10 µM, first compound 3.16 µM): 110% | viability, T/C (second compound 10 µM, first compound 10 µM): 86.6%

C=CCn1c(=O)c2cnc(Nc3ccc(N4CCN(C)CC4)cc3)nc2n1-c1cccc(C(C)(C)O)n1 + Cc1cccc(N(C)C(=O)C2C(O)CCN2c2nc(C)cc(C(F)(F)F)c2C#N)c1
pIC50 (second compound 0.0316 µM): 6.57 | pIC50 (second compound 0.1 µM): 6.27 | pIC50 (second compound 0.316 µM): 6.25 | pIC50 (second compound 1 µM): 6.37 | pIC50 (second compound 3.16 µM): 6.48 | pIC50 (second compound 10 µM): 6.60 | viability, T/C [25]: 110% | viability, T/C [26]: 87.5% | viability, T/C [1]: 108% | viability, T/C [2]: 86.7% | viability, T/C [3]: 44.5% | viability, T/C [4]: 34.3% | viability, T/C [27]: 102% | viability, T/C [28]: 97.4% | viability, T/C [5]: 85.7% | viability, T/C [6]: 93.4% | viability, T/C [7]: 65.4% | viability, T/C [8]: 31.2% | viability, T/C [29]: 97.4% | viability, T/C [30]: 107% | viability, T/C [9]: 91.7% | viability, T/C [10]: 92.4% | viability, T/C [11]: 67.8% | viability, T/C [12]: 31.3% | viability, T/C [31]: 96.8% | viability, T/C [32]: 90% | viability, T/C [13]: 92.5% | viability, T/C [14]: 76.7% | viability, T/C [15]: 58.4% | viability, T/C [16]: 27.8% | viability, T/C [33]: 98.1% | viability, T/C [34]: 91.1% | viability, T/C [17]: 93.8% | viability, T/C [18]: 90.2% | viability, T/C [19]: 50.9% | viability, T/C [20]: 30.9% | viability, T/C [35]: 109% | viability, T/C [36]: 90.1% | viability, T/C [21]: 90.2% | viability, T/C [22]: 83.8% | viability, T/C [23]: 40.9% | viability, T/C [24]: 26.9%

CCc1c2c(nc3ccc(O)cc13)-c1cc3c(c(=O)n1C2)COC(=O)[C@]3(O)CC + COC1C(OC(N)=O)C(O)C(Oc2ccc3c(O)c(NC(=O)c4ccc(O)c(CC=C(C)C)c4)c(=O)oc3c2C)OC1(C)C
pIC50 (second compound 0.0316 µM): 7.03 | pIC50 (second compound 0.1 µM): 7.06 | pIC50 (second compound 0.316 µM): 7.03 | pIC50 (second compound 1 µM): 7.14 | pIC50 (second compound 3.16 µM): 7.31 | pIC50 (second compound 10 µM): 7.51 | viability, T/C [25]: 110% | viability, T/C [26]: 87.6% | viability, T/C [1]: 70.6% | viability, T/C [2]: 49.2% | viability, T/C [3]: 30.4% | viability, T/C [4]: 20.2% | viability, T/C [27]: 103% | viability, T/C [28]: 95.4% | viability, T/C [5]: 73.5% | viability, T/C [6]: 45.8% | viability, T/C [7]: 30.1% | viability, T/C [8]: 19.2% | viability, T/C [29]: 107% | viability, T/C [30]: 95.7% | viability, T/C [9]: 67.8% | viability, T/C [10]: 50% | viability, T/C [11]: 30.8% | viability, T/C [12]: 18.5% | viability, T/C [31]: 103% | viability, T/C [32]: 81.3% | viability, T/C [13]: 60.7% | viability, T/C [14]: 47.9% | viability, T/C [15]: 28.9% | viability, T/C [16]: 19.6% | viability, T/C [33]: 106% | viability, T/C [34]: 87.2% | viability, T/C [17]: 59.7% | viability, T/C [18]: 35.1% | viability, T/C [19]: 24.1% | viability, T/C [20]: 20.6% | viability, T/C [35]: 86.7% | viability, T/C [36]: 65.5% | viability, T/C [21]: 53.7% | viability, T/C [22]: 32.5% | viability, T/C [23]: 21.7% | viability, T/C [24]: 21.1%
